Data on one molecule can be found in ChEMBL document CHEMBL3739313, “4-Methylcoumarins with cytotoxic activity against T24 and RT4 human bladder cancer cell lines” (2015).

Experiment [1] is described as follows: Cytotoxicity against human T24 cells assessed as reduction of cell viability at 10 uM after 48 hrs by MTT assay. It counts as functional, T-24. In general terms: Tetrazolium assays rely on reduction of a dye to a coloured formazan, in cell work by metabolically active cells.
The nature of experiment [2]: Cytotoxicity against human T24 cells assessed as reduction of cell count at 50 uM after 24 hrs. The arrangement: scale not given: the % may be the effect or the level left. It is filed as functional, T-24.
Experiment [3] is described as follows: Cell cycle arrest in human T24 cells assessed as accumulation at sub-G1 phase at 50 to 100 uM after 24 hrs by flow cytometry assay. The settings on record: T-24. It is filed as functional, cell-based.
For experiment [4], the system named is T-24. Description: Induction of apoptosis in human T24 cells at 50 uM after 24 hrs using annexin V/propidium iodide staining by flow cytometry assay. It is filed as functional. Background: A flow cytometer gives signals particle by particle.
The subject of experiment [5] is RT-4. Description: Cytotoxicity against human RT4 cells assessed as reduction of cell viability at 5 to 100 uM after 24 hrs by MTT assay. It counts as functional, cell-based.
Experiment [6] can be described thus: Cytotoxicity against human T24 cells assessed as reduction of cell viability at 50 uM after 48 hrs by MTT assay. It is filed as functional, T-24.
A short description of experiment [7]: Cytotoxicity against human T24 cells assessed as reduction of cell viability at 100 uM after 48 hrs by MTT assay. It counts as functional, T-24.
A short description of experiment [8]: Cytotoxicity against human T24 cells assessed as reduction of cell viability at 50 uM after 24 hrs by MTT assay. It counts as functional, T-24.
Experiment [9] can be described thus: Cytotoxicity against human T24 cells assessed as reduction of cell viability at 25 uM after 48 hrs by MTT assay. It counts as functional, T-24.

Each structure is given as a SMILES string. Calls of active or inactive are those of the source. The calls are words filed in the database; no cut-off is given here.

For `Cc1cc(=O)oc2c(O)c(O)cc(C(=O)O)c12`, the Activity in experiment [1] was found to be 21.37%; in [2] it was 44.52%; in [4] it was 22.57%; in experiment [6] it was 63.95%; in [7], 65.64%; in experiment [8], 24.14%. For the same molecule, in experiment [9], the Activity worked out at 62.26%. Besides, the outcome in experiment [3] was Active. The outcome in [5] was inactive.
